From article PMC6736866, “Electron cryomicroscopy observation of acyl carrier protein translocation in type I fungal fatty acid synthase” (Scientific Reports, 2019)

Columns and labels:
[1] = biological target: T1, C. albicans type I fungal fatty acid synthase (FAS) (Candida albicans, UniProt P34731+P43098); assay: cryoEM structure; NADPH oxidation at […] nm; assay type: biochemical; settings: ER domain near FMN (beta chain); KS-stalled state, 3 mM NADPH, cerulenin-inhibited; weak density, partial binding
T1 construct: gene FAS1; endogenous alpha6beta6 complex, native purification by anti-FLAG; C-terminal 6xHIS-3xFLAG on FAS1 (beta) kept; holo-ACP

[2] = biological target: T2, S. cerevisiae type I fungal fatty acid synthase (FAS) (Saccharomyces cerevisiae, UniProt P07149+P19097); assay: cryoEM structure; NADPH oxidation at […] nm; assay type: biochemical; settings: ER domain near FMN (beta chain); KS-stalled state, 3 mM NADPH, cerulenin-inhibited; weak density, partial binding
T2 construct: gene FAS1; endogenous alpha6beta6 heterododecamer, native purification by anti-FLAG; C-terminal 3xFLAG on FAS1 (beta) kept; beta 230 kDa, alpha 220 kDa; holo-ACP

[3] = biological target: T2, S. cerevisiae type I fungal fatty acid synthase (FAS); assay type: biochemical
[4] = biological target: T2, S. cerevisiae type I fungal fatty acid synthase (FAS); assay: cryoEM structure; assay type: binding; settings: ER domain (beta chain); Apo state and KS-stalled state
[5] = biological target: T1, C. albicans type I fungal fatty acid synthase (FAS); assay: cryoEM structure; assay type: binding; settings: ER domain (beta chain); Apo state and KS-stalled state

T2 sequence (P07149 whole entry, the tested form may be a part): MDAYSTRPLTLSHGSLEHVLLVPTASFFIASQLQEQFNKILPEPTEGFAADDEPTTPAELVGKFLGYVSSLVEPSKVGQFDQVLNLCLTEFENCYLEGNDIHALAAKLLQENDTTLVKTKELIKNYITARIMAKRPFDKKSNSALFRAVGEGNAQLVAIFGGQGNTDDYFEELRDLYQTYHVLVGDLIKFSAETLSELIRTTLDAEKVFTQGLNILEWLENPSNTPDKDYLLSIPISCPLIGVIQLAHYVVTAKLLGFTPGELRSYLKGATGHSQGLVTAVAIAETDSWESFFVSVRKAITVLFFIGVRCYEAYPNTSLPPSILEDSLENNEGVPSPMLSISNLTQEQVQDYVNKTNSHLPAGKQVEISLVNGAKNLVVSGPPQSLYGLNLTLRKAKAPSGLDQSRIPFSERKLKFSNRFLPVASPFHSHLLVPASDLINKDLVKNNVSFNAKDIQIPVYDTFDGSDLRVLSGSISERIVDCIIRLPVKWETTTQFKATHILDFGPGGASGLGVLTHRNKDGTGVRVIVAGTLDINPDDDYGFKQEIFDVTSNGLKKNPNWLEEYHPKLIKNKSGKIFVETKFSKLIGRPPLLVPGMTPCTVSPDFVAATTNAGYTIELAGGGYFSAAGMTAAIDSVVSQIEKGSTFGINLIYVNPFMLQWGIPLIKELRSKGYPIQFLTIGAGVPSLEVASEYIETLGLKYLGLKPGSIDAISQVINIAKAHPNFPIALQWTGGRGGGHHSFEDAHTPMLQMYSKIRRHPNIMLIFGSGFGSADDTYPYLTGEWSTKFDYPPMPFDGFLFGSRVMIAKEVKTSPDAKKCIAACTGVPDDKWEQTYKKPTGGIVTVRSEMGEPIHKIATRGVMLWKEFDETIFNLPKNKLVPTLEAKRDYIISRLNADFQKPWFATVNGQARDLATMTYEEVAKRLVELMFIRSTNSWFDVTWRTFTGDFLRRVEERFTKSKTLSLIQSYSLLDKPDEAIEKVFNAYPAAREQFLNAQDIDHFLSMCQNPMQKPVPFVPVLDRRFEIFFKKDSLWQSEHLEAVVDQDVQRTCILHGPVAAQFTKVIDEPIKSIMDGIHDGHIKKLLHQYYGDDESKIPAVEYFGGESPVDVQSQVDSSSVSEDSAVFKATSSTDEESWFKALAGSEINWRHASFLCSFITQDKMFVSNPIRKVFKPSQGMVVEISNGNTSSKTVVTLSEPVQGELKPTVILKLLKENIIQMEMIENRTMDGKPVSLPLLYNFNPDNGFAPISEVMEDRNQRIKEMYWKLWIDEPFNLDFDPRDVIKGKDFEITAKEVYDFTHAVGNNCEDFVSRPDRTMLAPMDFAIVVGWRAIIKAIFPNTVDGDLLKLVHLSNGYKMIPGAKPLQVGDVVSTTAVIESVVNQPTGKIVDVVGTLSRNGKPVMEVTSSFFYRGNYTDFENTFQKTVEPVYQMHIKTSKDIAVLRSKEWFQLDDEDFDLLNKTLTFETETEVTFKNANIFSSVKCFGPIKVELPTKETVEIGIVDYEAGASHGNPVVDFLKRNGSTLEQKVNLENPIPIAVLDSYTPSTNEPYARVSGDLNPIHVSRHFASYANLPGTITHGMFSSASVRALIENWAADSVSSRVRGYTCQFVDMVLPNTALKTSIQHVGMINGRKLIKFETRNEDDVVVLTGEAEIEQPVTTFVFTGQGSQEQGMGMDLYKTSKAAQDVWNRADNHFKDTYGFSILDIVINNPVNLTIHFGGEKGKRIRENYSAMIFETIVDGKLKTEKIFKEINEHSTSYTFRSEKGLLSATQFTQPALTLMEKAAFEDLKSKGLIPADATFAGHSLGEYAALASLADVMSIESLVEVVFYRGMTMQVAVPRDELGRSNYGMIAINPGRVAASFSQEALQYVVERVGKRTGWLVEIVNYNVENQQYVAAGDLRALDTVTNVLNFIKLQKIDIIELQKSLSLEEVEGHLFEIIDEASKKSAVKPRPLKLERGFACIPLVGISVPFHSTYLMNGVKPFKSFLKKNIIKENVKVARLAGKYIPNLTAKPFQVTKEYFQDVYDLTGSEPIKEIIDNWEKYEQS
T2 sequence (P19097 whole entry, the tested form may be a part): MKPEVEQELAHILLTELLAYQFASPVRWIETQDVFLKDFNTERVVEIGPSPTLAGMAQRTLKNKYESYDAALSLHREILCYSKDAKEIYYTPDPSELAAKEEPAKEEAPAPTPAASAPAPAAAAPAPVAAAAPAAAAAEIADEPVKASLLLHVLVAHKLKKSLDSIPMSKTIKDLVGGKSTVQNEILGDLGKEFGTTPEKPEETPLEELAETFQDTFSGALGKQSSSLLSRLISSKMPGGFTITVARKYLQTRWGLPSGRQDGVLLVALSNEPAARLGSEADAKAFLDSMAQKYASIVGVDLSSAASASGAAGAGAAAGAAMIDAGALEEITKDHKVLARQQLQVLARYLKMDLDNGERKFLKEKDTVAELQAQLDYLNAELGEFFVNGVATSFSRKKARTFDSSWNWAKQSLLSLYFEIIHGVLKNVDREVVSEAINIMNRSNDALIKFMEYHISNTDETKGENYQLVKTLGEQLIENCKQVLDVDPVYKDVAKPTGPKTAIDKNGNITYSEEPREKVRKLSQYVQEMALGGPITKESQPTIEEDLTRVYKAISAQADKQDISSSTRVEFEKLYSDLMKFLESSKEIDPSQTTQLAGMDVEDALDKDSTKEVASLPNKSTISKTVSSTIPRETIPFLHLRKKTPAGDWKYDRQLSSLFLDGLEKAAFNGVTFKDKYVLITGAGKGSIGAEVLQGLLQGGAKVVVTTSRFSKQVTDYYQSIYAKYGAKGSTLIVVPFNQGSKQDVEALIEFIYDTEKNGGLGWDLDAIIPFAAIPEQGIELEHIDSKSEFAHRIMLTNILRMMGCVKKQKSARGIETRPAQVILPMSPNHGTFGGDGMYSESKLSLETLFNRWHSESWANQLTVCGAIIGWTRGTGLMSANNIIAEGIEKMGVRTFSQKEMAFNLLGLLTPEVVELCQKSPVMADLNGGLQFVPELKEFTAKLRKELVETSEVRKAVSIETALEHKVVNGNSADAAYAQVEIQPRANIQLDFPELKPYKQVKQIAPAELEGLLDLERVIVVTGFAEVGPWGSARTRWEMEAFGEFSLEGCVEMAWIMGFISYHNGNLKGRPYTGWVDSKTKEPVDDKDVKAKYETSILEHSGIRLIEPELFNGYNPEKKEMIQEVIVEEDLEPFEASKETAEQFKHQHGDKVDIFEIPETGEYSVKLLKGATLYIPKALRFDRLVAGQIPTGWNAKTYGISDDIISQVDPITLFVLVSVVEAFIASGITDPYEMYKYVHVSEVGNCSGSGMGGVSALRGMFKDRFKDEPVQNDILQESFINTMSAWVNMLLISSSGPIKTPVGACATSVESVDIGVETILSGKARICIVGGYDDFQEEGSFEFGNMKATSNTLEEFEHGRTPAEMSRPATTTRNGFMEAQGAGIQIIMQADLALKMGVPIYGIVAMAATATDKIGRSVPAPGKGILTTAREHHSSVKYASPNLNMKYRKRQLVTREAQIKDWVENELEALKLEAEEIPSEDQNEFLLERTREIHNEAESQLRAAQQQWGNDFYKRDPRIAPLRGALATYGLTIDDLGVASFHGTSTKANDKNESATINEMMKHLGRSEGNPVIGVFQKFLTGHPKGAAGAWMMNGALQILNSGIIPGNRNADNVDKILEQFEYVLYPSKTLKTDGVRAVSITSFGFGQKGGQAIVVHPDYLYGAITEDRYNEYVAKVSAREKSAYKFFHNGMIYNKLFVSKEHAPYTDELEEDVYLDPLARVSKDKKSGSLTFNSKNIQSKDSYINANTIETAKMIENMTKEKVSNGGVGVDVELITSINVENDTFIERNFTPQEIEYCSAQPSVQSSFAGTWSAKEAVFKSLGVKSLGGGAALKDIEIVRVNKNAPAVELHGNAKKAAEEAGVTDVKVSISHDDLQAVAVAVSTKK

NC(=O)C1=CN([C@@H]2O[C@H](COP(=O)(O)OP(=O)(O)OC[C@H]3O[C@@H](n4cnc5c(N)ncnc54)[C@H](OP(=O)(O)O)[C@@H]3O)[C@@H](O)[C@H]2O)C=CC1 [NADPH]
cryoEM structure; NADPH oxidation at 340 nm [1]: Weak density can be seen for the NADPH in proximity of FMN | cryoEM structure; NADPH oxidation at 340 nm [2]: Weak NADPH density can also be seen in proximity of FMN

C/C=C/C/C=C/CCC(=O)[C@H]1O[C@H]1C(N)=O [cerulenin]
not named [3]: are sensitive to cerulenin, a covalent KS-inhibitor

Cc1cc2nc3c(=O)[nH]c(=O)nc-3n(C[C@H](O)[C@H](O)[C@H](O)COP(=O)(O)O)c2cc1C [flavin mononucleotide]
cryoEM structure [4]: the catalytic histidine side chain is in a single conformation facing FMN | cryoEM structure [5]: catalytic histidine can be modeled with two side chain orientations, one facing FMN
